# Assays:
# [1] = biological target: T1, Signal transducer and activator of transcription 1-alpha/beta (Homo sapiens, UniProt P42224); test: Inhibition of IFNgamma-induced STAT1 (unknown origin)
# T1 sequence (P42224 whole entry): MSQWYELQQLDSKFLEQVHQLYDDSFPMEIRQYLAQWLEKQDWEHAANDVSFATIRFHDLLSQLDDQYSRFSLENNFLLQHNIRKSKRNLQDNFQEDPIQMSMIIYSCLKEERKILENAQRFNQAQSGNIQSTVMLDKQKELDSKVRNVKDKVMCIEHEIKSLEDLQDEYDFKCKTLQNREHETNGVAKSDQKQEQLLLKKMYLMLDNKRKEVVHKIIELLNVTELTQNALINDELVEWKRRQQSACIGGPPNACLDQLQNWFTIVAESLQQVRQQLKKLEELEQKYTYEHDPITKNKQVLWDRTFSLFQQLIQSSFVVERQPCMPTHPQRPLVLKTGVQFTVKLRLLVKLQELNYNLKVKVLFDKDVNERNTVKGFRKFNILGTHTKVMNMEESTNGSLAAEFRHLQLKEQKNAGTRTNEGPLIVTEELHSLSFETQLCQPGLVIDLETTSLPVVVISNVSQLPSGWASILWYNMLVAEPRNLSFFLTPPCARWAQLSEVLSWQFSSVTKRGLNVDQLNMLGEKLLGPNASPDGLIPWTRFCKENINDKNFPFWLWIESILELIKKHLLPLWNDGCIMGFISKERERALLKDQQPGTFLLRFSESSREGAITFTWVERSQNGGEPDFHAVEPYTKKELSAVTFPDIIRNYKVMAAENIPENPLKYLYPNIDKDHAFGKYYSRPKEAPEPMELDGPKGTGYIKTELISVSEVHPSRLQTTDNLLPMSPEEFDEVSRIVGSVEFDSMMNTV
# [2] = Inhibition of IL6-induced STAT3 in human CAL33 cells
smiles,measurement,setting,value
Clc1ccc(C2=Nn3c(nnc3-c3[nH]nc4c3CCC4)SC2)cc1Cl,IC50,[1],> 50 µM
Clc1ccc(C2=Nn3c(nnc3-c3cc(-c4ccccc4)n[nH]3)SC2)cc1Cl,IC50,[1],> 50 µM
Clc1ccc(C2=Nn3c(nnc3-c3[nH]nc4c3CCC4)SC2)cc1,IC50,[1],> 50 µM
Clc1cccc(C2=Nn3c(nnc3-c3[nH]nc4c3CCC4)SC2)c1,IC50,[1],> 50 µM
c1ccc(C2=Nn3c(nnc3-c3[nH]nc4c3CCC4)SC2)cc1,IC50,[1],> 50 µM
c1ccc(C2=Nn3c(nnc3-c3cc(-c4ccccc4)[nH]n3)SC2)cc1,IC50,[1],> 50 µM
COc1ccc(C2=Nn3c(nnc3-c3cc(-c4ccccc4)n[nH]3)SC2)cc1,IC50,[1],> 50 µM
same,IC50,[2],3.7 µM
c1cc(C2=Nn3c(nnc3-c3[nH]nc4c3CCC4)SC2)ccn1,IC50,[1],> 50 µM
same,IC50,[2],> 50 µM
c1ccc(-c2cc(-c3nnc4n3N=C(c3ccncc3)CS4)[nH]n2)cc1,IC50,[1],> 50 µM
same,IC50,[2],> 50 µM
Clc1ccc(C2=Nn3c(nnc3-c3[nH]nc4c3CCC4)SC2)s1,IC50,[1],> 50 µM
Clc1ccc(C2=Nn3c(nnc3-c3cc(-c4ccccc4)n[nH]3)SC2)s1,IC50,[1],> 50 µM
same,IC50,[2],> 50 µM
C1=Nn2c(nnc2-c2[nH]nc3c2CCC3)SC1,IC50,[1],> 50 µM
same,IC50,[2],> 50 µM
C1=Nn2c(nnc2-c2cc(-c3ccccc3)n[nH]2)SC1,IC50,[1],> 50 µM
same,IC50,[2],> 50 µM
CC1=Nn2c(nnc2-c2[nH]nc3c2CCC3)SC1,IC50,[1],> 50 µM
same,IC50,[2],> 50 µM
CC1=Nn2c(nnc2-c2cc(-c3ccccc3)[nH]n2)SC1,IC50,[1],> 50 µM
same,IC50,[2],> 50 µM
C1CCC(C2=Nn3c(nnc3-c3[nH]nc4c3CCC4)SC2)CC1,IC50,[1],> 50 µM
same,IC50,[2],> 30 µM
c1ccc(-c2cc(-c3nnc4n3N=C(C3CCCCC3)CS4)[nH]n2)cc1,IC50,[1],> 50 µM
same,IC50,[2],> 50 µM
COc1ccc(C2CSc3nnc(-c4[nH]nc5c4CCC5)n3N2)cc1 (stereo not drawn),IC50,[2],> 50 µM
COc1ccc(C2CSc3nnc(-c4cc(-c5ccccc5)n[nH]4)n3N2C(C)=O)cc1 (stereo not drawn),IC50,[2],> 50 µM
Fc1ccc(-c2cc(-c3nnc4n3N=C(c3ccc(Cl)c(Cl)c3)CS4)[nH]n2)cc1,IC50,[2],7.5 µM
Clc1ccc(-c2cc(-c3nnc4n3N=C(c3ccc(Cl)c(Cl)c3)CS4)[nH]n2)cc1,IC50,[2],14.5 µM
Clc1ccc(C2=Nn3c(nnc3-c3[nH]nc4c3CCCC4)SC2)cc1Cl,IC50,[2],15.5 µM
CC1Sc2nnc(-c3[nH]nc4c3CCC4)n2N=C1c1ccc(Cl)c(Cl)c1 (stereo not drawn),IC50,[1],> 50 µM
COc1ccc(C2=Nn3c(nnc3-c3[nH]nc4c3CCC4)SC2C)cc1 (stereo not drawn),IC50,[1],> 50 µM
CC1Sc2nnc(-c3cc(-c4ccc(F)cc4)n[nH]3)n2N=C1c1ccccc1 (stereo not drawn),IC50,[1],> 30 µM
COc1ccc(C2=Nn3c(nnc3-c3cc(-c4ccc(F)cc4)n[nH]3)SC2C)cc1 (stereo not drawn),IC50,[1],> 30 µM
CC(C)C1Sc2nnc(-c3[nH]nc4c3CCC4)n2N=C1c1ccc(Cl)c(Cl)c1 (stereo not drawn),IC50,[1],> 50 µM
COc1ccc(C2=Nn3c(nnc3-c3[nH]nc4c3CCC4)SC2C(C)C)cc1 (stereo not drawn),IC50,[1],> 50 µM
CC(C)CC1Sc2nnc(-c3[nH]nc4c3CCC4)n2N=C1c1ccc(Cl)c(Cl)c1 (stereo not drawn),IC50,[1],> 50 µM
COc1ccc(C2=Nn3c(nnc3-c3cc(-c4ccccc4)n[nH]3)SC2CC(C)C)cc1 (stereo not drawn),IC50,[1],> 50 µM
Clc1ccc(C2=Nn3c(nnc3-c3[nH]nc4c3CCC4)SC2Cc2ccccc2)cc1Cl (stereo not drawn),IC50,[1],> 50 µM
CC1(C)Sc2nnc(-c3[nH]nc4c3CCC4)n2N=C1c1ccc(Cl)c(Cl)c1,IC50,[1],> 50 µM
Clc1ccc(C2=Nn3c(nnc3-c3cc(-c4ccccc4)[nH]n3)SC2)cc1 [MLS000558549],IC50,[1],> 50 µM
